{"source": "patent US12194230B2", "about": "“Methods, devices and systems for pulmonary delivery of active agents” (priority 2014, dated 2025)", "key": {"[1]": {"assay": "PK/PD study: plasma Δ^9-THC levels after single-dose inhalation of Cannabis flos with the metered-dose inhaler"}, "[2]": {"tested_on": "patients suffering from neuropathic pain", "assay": "VAS pain intensity after single-dose inhalation (PK/PD study)", "assay_type": "in vivo, human", "method": "The study was used to further evaluate the pharmacodynamic effect of pulmonary delivery of Δ^9-THC on pain reduction from baseline using a 10 cm visual analog scale (VAS) pain scale (0 being no pain; and 10 being worst possible pain); for monitoring adverse effects, blood pressure and heart rate, and for estimating the degree of satisfaction with the use of the MDI on a 0-10 scale.\n(§1) Pain intensity reduction was assessed as a therapeutic effect by asking participants to indicate the intensity of their current pain on a 100 mm visual analog scale (VAS) between 0 (no pain) and 100 (worst possible pain) at baseline (prior to the inhalation) and at 20 and 90 minutes following the pulmonary delivery of the pharmaceutically active agent from cannabis. Adverse effects, in the form of psychotropic symptoms, were recorded at 5, 15, 30, 60 and 120 minutes post pulmonary delivery, along with those spontaneously reported by the participants. Adverse effects were evaluated according to standardized criteria in terms of severity, frequency, duration and relationship to the study's active agent. Adverse effects were graded using the NIH Division of AIDS table for scoring severity of adult adverse experiences. Blood pressure and pulse rate were also recorded before, during and after the pulmonary delivery.\n(§2) Results are reported herein as mean values±1 standard deviation (±SD). For each one of the measured effects (VAS pain intensity, systolic and diastolic blood pressure, heart rate and satisfaction score), the mean and 95% confidence interval (CI) at different time points was plotted. Differences between VAS pain intensity values and satisfaction scores, before and after inhalation, were tested by two-tailed paired Student t-test. Blood pressure and heart rate values were compared among different time points by one-way ANOVA. P-values<0.05 were accepted as significant. All statistical analyses were performed using Minitab Statistical Software, version 16."}, "[3]": {"settings": "cited from earlier work; for mean Cmax increase per mg Δ^9-THC: Huestis et al."}, "[4]": {"tested_on": "patients suffering from neuropathic pain", "assay": "Adverse effects, blood pressure and heart rate after single-dose inhalation (PK/PD study)", "assay_type": "in vivo, human", "settings": "for heart rate: baseline 71±12, P=0.873; for mean diastolic blood pressure: baseline 82±9, P=0.410; for mean systolic blood pressure: baseline 133±13, P=0.068; for adverse effects (overall): single inhalation, 8 patients", "method": "as §1, §2"}, "[5]": {"tested_on": "patients suffering from chronic neuropathic pain", "settings": "cited from earlier work; for reduction of pain intensity: vaporized 10.3 mg total available Δ^9-THC in two sessions"}, "[6]": {"settings": "single inhalation, 3.08±0.02 mg total available Δ^9-THC"}}, "note": "Several values for one entry are separate records, joined by “and”; a condition that tells them apart may be missing. Identical values can stand only once. Like-named read-outs stand apart in the source and are kept apart here.", "data": [{"smiles": "CCCCCc1cc(O)c2c(c1)OC(C)(C)[C@@H]1CCC(CO)=C[C@@H]21", "note": "[11-OH-THC, 11-hydroxy Δ^9-THC]", "values": [{"measurement": "plasma levels of the active metabolite", "setting": "[1]; blood sampling 0-120 minutes after inhalation", "value": "No measurable plasma levels"}]}, {"smiles": "CCCCCc1cc(O)c2c(c1)OC(C)(C)[C@@H]1CCC(C)=C[C@@H]21", "note": "[Δ^9-THC, Δ9-tetrahydrocannabinol]", "values": [{"measurement": "decrease of VAS pain intensity from baseline (difference)", "setting": "[2]; 20 minutes after inhalation, baseline 7.5±1.4, 95% CI 2.1-4.9, P=0.001", "value": 3.4, "unit": "points"}, {"measurement": "VAS pain intensity versus baseline", "setting": "[2]; 90 minutes post-dosing", "value": "virtually identical results as at baseline"}, {"measurement": "reduction of pain intensity", "setting": "[2]; [6]", "value": 45, "unit": "%"}, {"measurement": "time within which the pain reduction reversed", "setting": "[2]; [6]", "value": "≤ 90", "unit": "min"}, {"measurement": "increase of Cmax per mg of THC", "setting": "[3]; Volcano vaporizer, Abrams et al. 2007, 2011", "value": "6.1 to 9.0", "unit": "ng/mL/mg"}, {"measurement": "mean Cmax increase per mg Δ^9-THC", "setting": "[3]; after the first puff of a 1.75% Δ^9-THC cigarette", "value": 3.54, "unit": "ng/ml per mg"}, {"measurement": "mean Cmax increase per mg Δ^9-THC", "setting": "[3]; after the first puff of a 3.55% Δ^9-THC cigarette", "value": 4.28, "unit": "ng/ml per mg"}, {"measurement": "plasma Cmax per mg of Δ^9-THC administered", "setting": "[3]; intravenous administration, D'Souza et al. 2004", "value": "32.8 ng Δ^9-THC/ml plasma and 23.8 ng Δ^9-THC/ml plasma"}, {"measurement": "inter-individual variability (CV) of Cmax", "setting": "[3]; oral administration", "value": "42-115%"}, {"measurement": "inter-individual variability (CV) of Cmax", "setting": "[3]; oromucosal route of delivery", "value": "59-67%"}, {"measurement": "increase of Cmax per mg of THC", "setting": "[3]; regular smoking cigarettes, Ohlsson, Hunault, Huestis", "value": "0.6 to 4.6", "unit": "ng/mL/mg"}, {"measurement": "inter-individual variability (CV) of Cmax", "setting": "[3]; smoking cigarettes", "value": "32-115%"}, {"measurement": "time of peak plasma concentrations", "setting": "[3]; smoking products of cannabis", "value": "1 to 3", "unit": "min"}, {"measurement": "bioavailability", "setting": "[3]; smoking route, listed as THC", "value": "2-56% and 2 to 56%"}, {"measurement": "first onset of effects", "setting": "[3]; smoking", "value": "about 7 minutes"}, {"measurement": "inter-individual variability (CV) of Cmax", "setting": "[3]; vaporizer", "value": "47-85%"}, {"measurement": "heart rate", "setting": "[4]; 30 minutes post-inhalation", "value": "72±11", "unit": "bpm"}, {"measurement": "mean diastolic blood pressure", "setting": "[4]; 30 minutes post-inhalation", "value": "75±10", "unit": "mm Hg"}, {"measurement": "mean systolic blood pressure", "setting": "[4]; 30 minutes post-inhalation", "value": "122±10", "unit": "mm Hg"}, {"measurement": "heart rate", "setting": "[4]; 90 minutes post-inhalation", "value": "69±13", "unit": "bpm"}, {"measurement": "mean diastolic blood pressure", "setting": "[4]; 90 minutes post-inhalation", "value": "81±12", "unit": "mm Hg"}, {"measurement": "mean systolic blood pressure", "setting": "[4]; 90 minutes post-inhalation", "value": "121±11", "unit": "mm Hg"}, {"measurement": "time to full recovery from light headedness", "setting": "[4]; all the other patients", "value": "≤ 30", "unit": "min"}, {"measurement": "patients experiencing light headedness", "setting": "[4]; first 10 minutes following inhalation, seven of eight patients", "value": 87.5, "unit": "%"}, {"measurement": "adverse effects (overall)", "setting": "[4]", "value": "minimal, reversible and well tolerated"}, {"measurement": "adverse effects (overall)", "setting": "[4]; listed as THC", "value": "minimal, reversible and receded rapidly"}, {"measurement": "time to full recovery from light headedness", "setting": "[4]; three patients", "value": "≤ 15", "unit": "min"}, {"measurement": "inter-individual variability (CV) of peak plasma THC concentration (Cmax)", "setting": "[1]; MDI device", "value": 25.3, "unit": "%"}, {"measurement": "increase of Cmax per mg of THC available in the cannabis used (mean)", "setting": "[1]; pulmonary delivery with the MDI device", "value": 12.3, "unit": "ng/mL/mg"}, {"measurement": "time of first detection in blood sample post-inhalation", "setting": "[1]; six patients without residual plasma THC at baseline", "value": 1, "unit": "min"}, {"measurement": "mean Cmax elevation", "setting": "[5]; Ware et al. 2010, single smoke inhalation of 25±1 mg cannabis with 9.4% Δ^9-THC (2.35 mg), three times a day for 5 days", "value": 45, "unit": "ng/mL"}, {"measurement": "decrease in average daily pain intensity", "setting": "[5]; Ware et al. 2010, single smoke inhalation of 25±1 mg cannabis with 9.4% Δ^9-THC, three times a day for 5 days, compared to placebo", "value": 11.4, "unit": "%"}, {"measurement": "reduction of neuropathic pain (plateau, ceiling effect)", "setting": "[5]; Wilsey et al. 2008, smoking 19 mg or 34 mg total available Δ^9-THC divided to 3 doses", "value": 45, "unit": "%"}, {"measurement": "analgesic response compared with the 10.3 mg dose", "setting": "[5]; Wilsey et al. 2013, THC dose increased to 28.2 mg", "value": "equianalgesic response"}, {"measurement": "reduction of pain intensity", "setting": "[5]; Wilsey et al. 2013, 3 hours", "value": 31, "unit": "%"}, {"measurement": "reduction of pain intensity", "setting": "[5]; Wilsey et al. 2013, 5 hours", "value": 25, "unit": "%"}]}]}
